Among the test systems are UACC-257; SK-MEL-5; OVCAR-3; HT-29; KM12; RXF 393; U-251; SN12C; CCRF-CEM; LOX IMVI; OVCAR-4; K562; SK-OV-3; HCT-15; NCI-H460; UO-31; SNB-19; HL-60; MOLT-4; NCI-H23.
What all share (assay): DTP human tumour cell line panel, 48 h

These results are taken from ChEMBL document CHEMBL1201862, “PubChem BioAssay data set” (2004).

The structures appear in SMILES notation.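 48-hour exposure; five concentrations; linearly interpolated endpoints. Here, GI50 denotes the concentration required for 50% inhibition of growth.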 Activity calls are given as the source filed them. No stated cut-off is given here; in the data, active = GI50 up to about 1.1 µM and inactive = higher.

In general, GI50 refers to the concentration giving 50% growth inhibition.

As for `CSc1nc(N)c2c(-c3ccccc3)c3c(nc2n1)CCCC3`, the GI50 was > 100 µM (inactive) with UACC-257; > 100 µM (inactive) with SK-MEL-5; > 100 µM (inactive) in the assay on OVCAR-3; > 100 µM (inactive) in the assay with HT-29; > 100 µM (inactive) in the assay on KM12; 29.7 µM (inactive) with RXF 393. Also, the GI50 in the assay with U-251 was > 100 µM (inactive); with SN12C it was > 100 µM (inactive); in the assay with CCRF-CEM, > 100 µM (inactive); in the assay with LOX IMVI, > 100 µM (inactive); in the assay with OVCAR-4, 29.6 µM (inactive); in the assay on K562, > 100 µM (inactive). Also, the GI50 is 87.7 µM (inactive) with SK-OV-3; over 100 µM with HCT-15; > 100 µM (inactive) in the assay on NCI-H460; 3.38 µM (inactive) in the assay with UO-31; > 100 µM (inactive) in the assay on SNB-19; > 100 µM (inactive) in the assay on HL-60. Also, the GI50 in the assay with MOLT-4 and in the assay with NCI-H23 was > 100 µM (inactive) each time.

Take `CN(C)c1nc(N(C)C)nc(N(C)CN(C)c2ccccc2)n1`: the GI50 in the assay on UACC-257 is > 100 µM (inactive); in the assay on SK-MEL-5 it was 88.7 µM (inactive); with OVCAR-3, > 100 µM (inactive); with HT-29, > 100 µM (inactive); in the assay with KM12 it was > 100 µM (inactive); in the assay on RXF 393, > 100 µM (inactive). Also, the GI50 in the assay on U-251, in the assay with SN12C, in the assay on CCRF-CEM, in the assay on LOX IMVI, in the assay with OVCAR-4 and in the assay with K562 was > 100 µM (inactive) throughout. In addition, the GI50 in the assay with SK-OV-3 was > 100 µM (inactive); in the assay with HCT-15, over 100 µM; in the assay with NCI-H460, > 100 µM (inactive); in the assay with UO-31 it was > 100 µM (inactive); with SNB-19, > 100 µM (inactive); in the assay on HL-60 it was > 100 µM (inactive). In addition, the GI50 with MOLT-4 and in the assay with NCI-H23 was > 100 µM (inactive) each time.

On to `NC(=O)Oc1ccccc1` [CARBAMIC ACID PHENYL ESTER], for which the GI50 in the assay with UACC-257, with SK-MEL-5, in the assay on OVCAR-3, with HT-29, with KM12 and in the assay with RXF 393 was > 100 µM (inactive) in each case. Further, the GI50 in the assay on U-251, in the assay with SN12C, in the assay on CCRF-CEM, with LOX IMVI, with OVCAR-4 and with K562 was > 100 µM (inactive) throughout. Besides, the GI50 with SK-OV-3 was > 100 µM (inactive); in the assay with HCT-15, over 100 µM; in the assay on NCI-H460, > 100 µM (inactive); in the assay with UO-31, > 100 µM (inactive); with SNB-19, > 100 µM (inactive); with HL-60, > 100 µM (inactive). Further, the GI50 in the assay with MOLT-4 and in the assay on NCI-H23 was > 100 µM (inactive) in each case.
